Assay results from patent publication US9352010B2, “Treatment of HIV-1 infection and AIDS” (The J. David Gladstone Institutes, priority 2011, dated 2016).

Legend:
[1] = tested on: CD4 T cells in HIV-1 (NL4-3)-infected HLACs; assay: CD4 T-cell death in HIV-1-infected HLACs, viable CD4 T cells by flow cytometry; format: cell-based, human; details: FIG. 15, 4 different donors
ISRE-GFP H35 cells = assay: ISRE-GFP H35 reporter cells; format: cell-based, rat; details: AZT 5 μM, efavirenz 100 nM, raltegravir 30 μM
Method: Hepatocyte-derived reporter ISRE-GFP H35 cells were maintained as previously described (King et al., 2007, Lab Chip 7:77-85; Patel et al., 2009, Proc Natl Acad Sci USA 106:12867-12872). For microscopic imaging, ISRE-GFP reporter H35 cells were cultured on 35 mm glass bottom culture dishes (MatTeck) and were treated with AZT (5 μM), Efavirenz (100 nM), or Raltegravir (30 μM) 12 hours before infection. Cells were then infected with 2 μg/ml of replication competent VSV-G pseudotyped NL4-3. After 48 hours incubation at 37° C., cells were fixed in 2% paraformaldehyde at 25° C. for 1 hour, washed with PBS and stained with 10 μg/ml Hoechst 33342 (Invitrogen) and 1 μg/ml 7-AAD (eBioscience) for 15 min at 25° C. Cells were washed 3 times with PBS and were analyzed with an Axio observer Z1 microscope (Zeiss) equipped with an EC Plan NEOFLUAR 10×/0.3 PHM27 objective, filter sets 38HE, 45, and 49, and an Axiocam MRM REV 3.

| SMILES | death of infected CD4 T-cells [1] | GFP expression and cell death induced by VSV-G pseudotyped HIV-1 virions (ISRE-GFP H35 cells) |
| --- | --- | --- |
| c1cc(CN2CCCNCCNCCCNCC2)ccc1CN1CCCNCCNCCCNCC1 [AMD3100] | inhibit the death of infected CD4 T-cells | – |
| Cc1cn([C@H]2C[C@H](N=[N+]=[N-])[C@@H](CO)O2)c(=O)[nH]c1=O [AZT] | – | induced GFP expression and cell death in the presence or absence of AZT |
| O=C1Nc2ccc(Cl)cc2[C@@](C#CC2CC2)(C(F)(F)F)O1 [efavirenz] | inhibit the death of infected CD4 T-cells | blocked |
